Test results from article PMC12750388, “Coumarin-1,2,3-Triazole Conjugates as Molecular Scaffolds for the Selective Induction of ROS-Driven Apoptosis in Cancer Cells in the Development of Pyruvate Kinase M2 Inhibitors” (ACS Omega, 2025).

Tests used:
[1] = system: C57BL/6 mice; experiment: Acute toxicity assay in vivo; conditions: 14 days
Procedure: All experiments were performed in accordance with the Brazilian guidelines and regulations. Dosing and analysis were performed according to 423 OECD guidelines and reviewed by ref. . An experimental approach was conducted using experimental groups (n = 3) in which each group received a single dose of 7f (100, 200, or 400 mg/kg). […] Control group animals received only 3% DMSO in PBS vehicle. Animals were examined every day, twice a day, for mortality and morbidity for 14 days, and all animals were sacrificed by cervical dislocation. The animals’ body weight and average food consumption were measured every 7 days. […]
increased rear arching, and mobility impairment. The necropsy included an examination of the external characteristics of the carcass; external body orifices; the abdominal, thoracic, and cranial cavities; organs/tissues of liver, thymus, right kidney, right testicle, heart, and lung.
Animals upon euthanasia had their organs evaluated for signs of toxicity or morphological […]
are presented: changes in body weight and food intake, signs of morbidity, possible mortality, and macroscopic alterations in collected organs. Each experimental group consisted of three C57BL/6 mice. The animals were monitored for 14 days, after which they were euthanized and necropsied. […]

[2] = system: caspases 3 and 7 in SCC-9 cells; experiment: Caspase-Glo 3/7 assay; format: cell-based, human; conditions: SCC-9, 2 × IC50, 12 and 24 h
Procedure: Analysis of activation of caspases 3 and 7 was assessed by using the Caspase-Glo 3/7 Assay Kit (Promega Corporation, Madison, WI, USA; G8090). The reagent provided by the kit causes cell lysis; therefore, parallelly, a cell viability assay using violet crystal was performed to normalize the detection of active caspases by viable cells. Caspases 3 and 7 procedures consisted of seeding 5 × 10^3 SCC-9 cells in a 96-well plate. […] A plate with wells without cells was used as a control. Cells and cell-free wells remained in treatment at times of interest. Then, caspase activity was detected according to the manufacturer’s instructions. Results were obtained using a TD 20/20 luminometer (Turner Designs, Sunnyvale, CA, USA). […] Then the medium was removed, and the wells were gently washed with PBS. PBS was removed, and cells were fixed with 100% alcohol that was removed after 10 min. Cells were stained with 0.05% violet crystal for 10 min. Wells were gently washed with deionized water, and […] methanol was added to each well, followed by agitation of the plate for 10 min. Absorbance of wells was read in an EPOCH (BioTek Instruments, Winooski, VT, USA) at an absorbance of 595 nm.

[3] = system: SCC-9 cell line; experiment: MTT cell viability assay, SCC-9; format: cell-based, human
Procedure: (§1) The viability of SCC cell lines and primary human fibroblast cells was evaluated using the MTT assay to determine half maximal inhibitory concentration (IC50). Briefly, cells were grown in triplicate in 96-well plates (5 × 10^3 cells/well) until confluence. Then the medium was removed, fresh medium was added, and the cells were returned to the incubator in the presence of different compounds. DMSO at the same concentrations was used as a 100% cell viability control. After 48 h, cells were incubated with 5 mg/mL MTT reagent (3-(4,5-dimethyl-2-thiazolyl)-2,5-diphenyl-2-H-tetrazolium bromide) (Sigma-Aldrich Co., St. Louis, MO, USA) for 3.5 h. After that, formazan crystals were dissolved in MTT solvent solution (DMSO/methanol 1:1 v/v), and the absorbance at 560 nm was evaluated using an EPOCH microplate spectrophotometer (BioTek Instruments, Winooski, VT, USA) with the background absorbance at 670 nm subtracted. Each of the 12 compounds (7a–7l) was tested at six different concentrations, ranging from 6.25 to 200 μM in cancer and normal cell lines. Control (carboplatin) was tested at six different concentrations ranging from 25 μM to 800 μM in cancer cells and from 50 μM to 1600 μM in normal cells.
(§2) Half-maximal inhibitory concentration (IC50) values were obtained from the MTT assay of at least three independent replicates through nonlinear regression analysis using GraphPad Prism 5.0 software (Intuitive Software for Science, San Diego, CA, USA). Data were presented as means ± standard deviation (SD). A log dose–response curve (inhibitor vs response) using the least-squares method was used to determine the IC50 and SD from the data. The selectivity index (SI) was calculated as the ratio between the IC50 in normal cells and the IC50 in cancer cells, obtained by dividing the IC50 of normal cells by the IC50 of cancer cells.

[4] = system: 4T1; experiment: MTT cell viability assay, 4T1; format: cell-based, murine
[5] = system: SCC-9 cells; experiment: Cytotoxicity assay (cell death inhibition) with z-VAD-fmk and necrostatin-1; format: cell-based; conditions: SCC-9, 2 × IC50 7f, 24 h
Procedure: This investigation consists of pretreating cells with different death inhibitors. For this assay, day SCC-9 cells were seeded in a 96-well plate, and the next day, they were pretreated for 2 h with 20 μM z-VAD-fmk (ZVAD) (Promega Corporation, Madison, WI, USA) and 20 μM necrostatin-1 (Nec-1) (Sigma-Aldrich Co., St. Louis, MO, USA) alone or in combination. […] The plate was incubated for 24 h, and the result was determined through an MTT cell viability assay. The absorbance was measured with an EPOCH (BioTek Instruments, Winooski, VT, USA) spectrometer at 560 nm.

[6] = molecular target: T1, PKM2 (Homo sapiens, UniProt P14618); experiment: Quantification of ATP production from PKM2 reaction; format: biochemical; conditions: 1 × IC50 of 7f (55.13 μM)
T1 construct: purchased Sigma-Aldrich Co., St. Louis, MO, USA
T1 sequence (P14618 whole entry): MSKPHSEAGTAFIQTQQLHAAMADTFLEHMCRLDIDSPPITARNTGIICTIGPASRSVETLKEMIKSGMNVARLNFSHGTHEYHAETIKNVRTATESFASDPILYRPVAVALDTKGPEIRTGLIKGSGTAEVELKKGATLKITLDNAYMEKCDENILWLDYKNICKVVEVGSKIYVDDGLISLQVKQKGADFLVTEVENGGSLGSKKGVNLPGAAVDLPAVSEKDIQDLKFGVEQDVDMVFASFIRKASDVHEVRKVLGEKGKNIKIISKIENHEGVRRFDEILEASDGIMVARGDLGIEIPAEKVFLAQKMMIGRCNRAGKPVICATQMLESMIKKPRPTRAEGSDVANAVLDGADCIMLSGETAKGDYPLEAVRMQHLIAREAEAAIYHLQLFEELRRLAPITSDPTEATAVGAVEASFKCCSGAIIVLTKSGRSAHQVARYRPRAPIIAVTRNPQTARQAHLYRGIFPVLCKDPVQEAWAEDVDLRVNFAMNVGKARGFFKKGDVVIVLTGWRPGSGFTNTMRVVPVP
Procedure: The measurement of PKM2 activity through ATP production was conducted to confirm whether the enzymatic inhibition observed in the previous assay was indeed due to PKM2. The master mix was prepared as indicated above. In a microtube containing the master mix prepared in the presence of 1 × IC50 7f, the control received the addition of 0.5 mM PEP for 3 min. Afterward, CellTiter-Glo reagent (Promega, Madison, WI, USA) was added as indicated by the manufacturer’s instructions, and the samples were kept shielded from light for 2 min. After the specified time, the sample was taken for reading in a Turner Designs TD 2020 luminometer (Turner Designs, Sunnyvale, CA, USA).

[7] = system: SCC-4; experiment: MTT cell viability assay, SCC-4; format: cell-based, human
Procedure: as §1, §2

[8] = system: B16–F10; experiment: MTT cell viability assay, B16–F10; format: cell-based, murine
[9] = 100 mg/kg single intraperitoneal dose
[10] = 200 mg/kg single intraperitoneal dose
[11] = 400 mg/kg single intraperitoneal dose
[12] = versus human gingival fibroblast

O=C1C=C(OCc2cn(CCCOc3cc(=O)oc4ccccc34)nn2)C(=O)c2ccccc21 [Compound 7f, 2-((1-(3-((2-Oxo-2H-chromen-4-yl)oxy)propyl)-1H-1,2,3-triazol-4-yl)methoxy)naphthalene-1,4-dione]
Change in body weight [1, 9]: Absent | Change in food consumption [1, 9]: Absent | Gross Necropsy [1, 9]: Absent | Morbidity [1, 9]: Absent | Change in body weight [1, 10]: Absent | Change in food consumption [1, 10]: Absent | Gross Necropsy [1, 10]: Absent | Morbidity [1, 10]: Absent | Change in body weight [1, 11]: Absent | Change in food consumption [1, 11]: Absent | Gross Necropsy [1, 11]: Absent | Morbidity [1, 11]: Absent | caspases 3 and 7 activity, luminescent signal versus DMSO [2]: approximately 2 fold | IC50 ([3]; Homo sapiens, SCC-9, MTT, 48 h): 12.3 µM | SI SCC-9 ([3]; IC50 human gingival fibroblast / IC50 SCC-9): 1.85 | IC50 ([4]; Mus musculus, 4T1, MTT, murine breast cancer): 7.63 µM | SI 4T1 [4, 12]: 2.98 | cell death after pretreatment with 20 μM z-VAD-fmk (ZVAD) [5]: significantly attenuated | cytotoxic effect after pretreatment with 20 μM necrostatin-1 (Nec-1), alone or with ZVAD [5]: failed to reverse the cytotoxic effect | inhibition at 55.13 µM [6]: ~50% | IC50 ([7]; Homo sapiens, SCC-4, MTT, 48 h): 7.93 µM | SI SCC-4 ([7]; IC50 human gingival fibroblast / IC50 SCC-4): 2.87 | IC50 ([8]; Mus musculus, B16-F10, MTT, murine melanoma): 4.93 µM | SI B16–F10 [8, 12]: 4.61
